Our source for the Ki and EC50 values is patent US10174020B2, “Pyridone or pyrimidone derivative, preparation method therefor and application thereof” (Sichuan Haisco Pharmaceutical Co., Ltd., priority 2014, dated 2019).

The target in experiment [1] is human blood-coagulation factor XIa (Homo sapiens (Human), UniProt P03951). The experiment in a line: In vitro inhibitory effect on the enzymatic activity of blood-coagulation factor XIa (S2366 substrate, absorbance at 405 nm). It is filed as biochemical. The following applies: calculated from IC50 at substrate S2366 200 μM, Km=0.2 mM; IC50=Ki(1+[S]/Km). How it is done: The following method was used to test the in vitro inhibitory effect of the compounds of the present invention on the activity of human blood-coagulation factor XIa, expressed by the Inhibition constant Ki.
human blood-coagulation factor XIa, sequence (P03951 388-625): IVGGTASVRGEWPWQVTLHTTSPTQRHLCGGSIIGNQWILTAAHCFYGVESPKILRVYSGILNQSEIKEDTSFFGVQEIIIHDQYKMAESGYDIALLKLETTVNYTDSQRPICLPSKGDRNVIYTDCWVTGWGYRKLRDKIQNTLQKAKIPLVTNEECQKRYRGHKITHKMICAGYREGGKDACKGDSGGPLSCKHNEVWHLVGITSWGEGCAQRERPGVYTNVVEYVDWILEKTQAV
human blood-coagulation factor XIa, sequence (P03951 19-387 partner): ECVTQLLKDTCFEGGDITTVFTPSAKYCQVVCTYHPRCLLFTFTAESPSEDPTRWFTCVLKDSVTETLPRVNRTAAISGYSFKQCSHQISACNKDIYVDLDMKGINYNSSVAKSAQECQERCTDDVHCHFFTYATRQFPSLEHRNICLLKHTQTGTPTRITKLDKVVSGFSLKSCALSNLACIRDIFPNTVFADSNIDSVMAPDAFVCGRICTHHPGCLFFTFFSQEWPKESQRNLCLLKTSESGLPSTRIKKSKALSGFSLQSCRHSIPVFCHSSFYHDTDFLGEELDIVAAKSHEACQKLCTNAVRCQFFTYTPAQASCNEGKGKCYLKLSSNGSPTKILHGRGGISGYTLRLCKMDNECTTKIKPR
Solution preparation: reaction buffer: 0.03M HEPES acid, 0.145M NaCl, 0.005 M KCl, 0.1% PEG-8000, pH=7.5;
HEPES 8.499 g, NaCl 8.47 g, KCl 0.3725, PEG 8000 1 g, plus ddH2O 800 ml; the pH was adjusted to […] with HCl, and the volume was metered to 1 L.
S2366 substrate stock solution (2 mM): a volume of substrate […] was dissolved in 23 ml sterile deionized water, aliquoted, and stored at 4° C. in darkness.
S2366 substrate working solution: the stock solution was diluted by 4 folds with the reaction buffer before use.
FXIa working solution: 1 μl FXIa stock solution was added to 10 ml reaction buffer and thoroughly mixed before use.
Method: 15 μl test sample working solution (15 μl DMSO for the control group) and 75 μl FXIa working solution were added to a 96-well plate, and incubated at room temperature for 15 min. Then 60 μl S2366 substrate working solution was added to initiate the reaction. The absorbance at 405 nm for the test compounds was continually assayed once every 3 minutes, and a ΔA-time curve was plotted to calculate the slope as the reaction rate. In accordance with the following equation, IC50 of each test sample when the substrate concentration was 200 μM was calculated with spss 16.0. Inhibition (I %) and Ki of the test samples were calculated in accordance with the follow equations, and the results are shown in Table 1. I %=(V0−Vi)/V0×100 where V0 is the reaction rate in the control wells, and Vi is the reaction rate in the test sample wells; IC50=Ki(1+[S]/Km) where Km=0.2 mM, and [S] is the substrate concentration=200 μM.

The next experiment has as its system human plasma. Briefly: In vitro assay of the blood coagulation function of human plasma (APTT). It is filed as biochemical. The following applies: concentration required to double the plasma APTT, read-out: aPTT EC2×. On the procedure:
20 ml blood was taken by venipuncture from the ulnar vein of each of 20 healthy volunteers aged 25 to 35 years who had not taken any medicines within last one week, and was collected in a sodium citrate anticoagulation tube, with the ratio of anticoagulant to blood being 1:9 (v/v). Anticoagulation blood was taken and centrifuged at 200 g for 15 min, the supernatant therefrom was taken and centrifuged at 2000 g for 15 min, and then the supernatant therefrom was collected, well mixed, separated into 4 to 5 ml aliquots, and stored at −80° C. For APTT and PT assays, a plasma sample was taken and rapidly thawed in a 37° C. water bath, and 6 μl test compound working solution was added per 294 μl plasma, while 6 μl DMSO was added for the blank control. The compounds and plasma were well mixed, and assayed in a coagulometer. The concentration of the compounds (EC2×) required to double the plasma APTT was determined with origin 8.5, and the results are shown in Table 2.

For `O=C(O)c1cc2cc(NC(=O)[C@@H]3CCc4cc(-c5cc(Cl)ccc5-n5cnnn5)cc(=O)n43)ccc2[nH]1` (single isomer, unassigned) [Compound 8-1], in experiment [1], the Ki – broadly, the dissociation constant of the complex between target and ligand, obtained from inhibition or displacement – was 2 nM. Moreover, in the experiment with human plasma, the EC50 stood at 2300 nM.

As to `O=C(O)c1cc2cc(NC(=O)[C@H]3CCc4cc(-c5cc(Cl)ccc5-n5cnnn5)cc(=O)n43)ccc2[nH]1` (single isomer, unassigned) [Compound 8-2], in experiment [1], the inhibition constant (Ki) was 1030 nM. Take `O=C(O)c1ccc(NC(=O)C2CCc3nc(-c4cc(Cl)ccc4-n4cnnn4)cc(=O)n32)cc1` (stereo not shown) [Compound 1, N-(4-carboxyphenyl)-2-(5-chloro-2-(1H-tetrazol-1-yl)phenyl)-4-oxo-4,6,7,8-tetrahydropyrrolo[1,2-a]pyrimidine-6-carboxamide]: in experiment [1], the Ki was 249 nM. For `O=C(O)c1ccc(NC(=O)C2CCc3cc(-c4cc(Cl)ccc4-n4cnnn4)cc(=O)n32)cc1` (stereo not shown) [Compound 2, N-(4-carboxyphenyl)-7-(5-chloro-2-(1H-tetrazol-1-yl)phenyl)-5-oxo-1,2,3,5-tetrahydroindolizine-3-carboxamide], the Ki in experiment [1] was 68 nM.

Consider `O=C(O)c1cc2cc(NC(=O)C3CCc4cc(-c5cc(Cl)ccc5-n5cnnn5)cc(=O)n43)ccc2[nH]1` (stereo not shown) [Compound 3, N-(2-carboxyindol-5-yl)-7-(5-chloro-2-(1H-tetrazol-1-yl)phenyl)-5-oxo-1,2,3,5-tetrahydroindolizine-3-carboxamide], for which the Ki in experiment [1] is 9 nM. In addition, the EC50 in the experiment with human plasma came to 6100 nM.

Consider `O=C(O)c1cc2cc(NC(=O)C3CCc4nc(-c5cc(Cl)ccc5-n5cnnn5)cc(=O)n43)ccc2[nH]1` (stereo not shown) [Compound 4, N-(2-carboxyindol-5-yl)-2-(5-chloro-2-(1H-tetrazol-1-yl)phenyl)-4-oxo-4,6,7,8-tetrahydropyrrolo[1,2-a]pyrimidine-6-carboxamide], for which the Ki in experiment [1] was 17 nM. In addition, the EC50 in the experiment on human plasma was 9500 nM.

On to `O=C(Cn1ccc(-c2cc(Cl)ccc2-n2cnnn2)cc1=O)Nc1ccc(C(=O)O)cc1` [Compound 5], for which the Ki in experiment [1] is 146 nM. Regarding `O=C(Cn1ccc(-c2cc(Cl)ccc2-n2cnnn2)cc1=O)Nc1ccc2[nH]c(C(=O)O)cc2c1` [Compound 6], the Ki in experiment [1] is 14 nM.

Turning to `O=C(O)c1cc2cc(NC(=O)C(Cc3ccccc3)n3ccc(-c4cc(Cl)ccc4-n4cnnn4)cc3=O)ccc2[nH]1` (stereo not shown) [Compound 9, 5-[[2-[4-[5-chloro-2-(tetrazol-1-yl)phenyl]-2-oxo-1-pyridyl]-3-phenyl-propanoyl]amino]-1H-indole-2-carboxylic Acid], the inhibition constant Ki in experiment [1] was 4 nM. The EC50 in the experiment on human plasma came to 6400 nM.
